In patent US20220227760A1, “COMPOUNDS AND COMPOSITIONS FOR TREATING CONDITIONS ASSOCIATED WITH STING ACTIVITY” (IFM Due, Inc., priority 2019, published 2022):

target: T1, Human STING (Homo sapiens, UniProt Q86WV6, G230A/H232R/R293Q/R71H); test: STING reporter assay (luciferase) in THP1-Dual KO-IFNAR2 cells stimulated with 2′3′cGAMP; format: cell-based; settings: 15 μM 2′3′cGAMP, 24 h, class symbols
T1 construct: host or cells: THP1-Dual KO-IFNAR2 cells
Method: STING pathway activation by the compounds described herein is measured using THP1 Dual™ cells (KO-IFNAR2).
THP1-Dual™ KO-IFNAR2 Cells (obtained from invivogen) are maintained in RPMI, 10% FCS, 5 ml P/S, 2 mM L-glut, 10 mM Hepes, and 1 mM sodium pyruvate. Compounds are spotted in empty 384 well tissue culture plates (Greiner 781182) by Echo for a final concentration of 0.0017-100 μM. Cells are plated into the TC plates at 40 μL per well, 2×10E6 cells/mL. For activation with STING ligand, 2′3′cGAMP (MW 718.38, obtained from Invivogen), is prepared in Optimem media.
The following solutions are prepared for each 1×384 plate: • Solution A: 2 mL Optimem with one of the following stimuli: • 60 uL of 10 mM 2′3′cGAMP ->150 μM stock • Solution B: 2 mL Optimem with 60 μL Lipofectamine 2000->Incubate 5 min at RT
2 mL of solution A and 2 ml Solution B is mixed and incubated for 20 min at room temperature (RT). 20 uL of transfection solution (A+B) is added on top of the plated cells, with a final 2′3′cGAMP concentration of 15 μM. The plates are then centrifuged immediately at 340 g for 1 minute, after which they are incubated at 37° C., 5% CO2, >98% humidity for 24 h. Luciferase reporter activity is then measured. EC50 values were calculated by using standard methods known in the art.
Luciferase reporter assay: 10 μL of supernatant from the assay is transferred to white 384-plate with flat bottom and squared wells. one pouch of QUANTI-Luc™ Plus is dissolved in 25 mL of water. 100 μL of QLC Stabilizer per 25 mL of QUANTI-Luc™ Plus solution was added. 50 μL of QUANTI-Luc™ Plus/QLC solution per well is then added. Luminescence is measured on a Platereader (e.g., Spectramax I3X (Molecular Devices GF3637001)).
Luciferase reporter activity is then measured. EC50 values are calculated by using standard methods known in the art.

T1 sequence (Q86WV6 whole entry R71H/G230A/H232R/R293Q): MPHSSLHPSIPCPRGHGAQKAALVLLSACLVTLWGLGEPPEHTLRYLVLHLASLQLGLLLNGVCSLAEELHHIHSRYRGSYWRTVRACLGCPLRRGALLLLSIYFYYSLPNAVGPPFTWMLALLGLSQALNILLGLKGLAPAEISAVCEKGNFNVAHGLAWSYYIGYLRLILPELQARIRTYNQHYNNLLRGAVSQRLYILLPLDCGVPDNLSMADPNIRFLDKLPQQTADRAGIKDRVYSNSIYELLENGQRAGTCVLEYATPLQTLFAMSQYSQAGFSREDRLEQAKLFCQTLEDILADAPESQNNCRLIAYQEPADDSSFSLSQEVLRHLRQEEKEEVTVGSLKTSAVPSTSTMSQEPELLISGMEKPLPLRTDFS

First: c1ccc(-c2ccnc(Nc3c[nH]c4ccccc34)n2)cc1 [Compound 158]
Second: c1ccc2nc(Nc3c[nH]c4ccccc34)ncc2c1 [Compound 159]
The EC50 of the first is lower: 1 to 5 µM for the first, 5 to 30 µM for the second.

Fc1cnc2[nH]cc(Nc3ncc(-c4ccccc4)o3)c2c1 [Compound 101, N-[5-fluoro-1H-pyrrolo[2,3-b]pyridin-3-yl]-5-phenyl-1,3-oxazol-2-amine] and c1ccc(-c2cnc(Nc3c[nH]c4ccccc34)s2)cc1 [Compound 165] fall in the same range of EC50: 0.2 to 1 µM for the first, 0.2 to 1 µM for the second.

c1ccc2cc(Nc3c[nH]c4ccccc34)ncc2c1 [Compound 166] and c1ccc2nc(Nc3c[nH]c4ccccc34)ccc2c1 [Compound 167] fall in the same range of EC50: 1 to 5 µM for the first, 1 to 5 µM for the second.

First: O=c1cc(-c2ccccc2)[nH]c(Nc2c[nH]c3cc(F)c(F)cc23)n1 [Compound 163, 2-[(5,6-difluoro-1H-indol-3-yl)amino]-6-phenyl-1H-pyrimidin-4-one]
Second: O=c1cc(-c2ccccc2)[nH]c(Nc2c[nH]c3cccnc23)n1 [Compound 160]
The EC50 of the first is higher: 5 to 30 µM for the first, 1 to 5 µM for the second. The second is the more potent here.

Compared with Fc1cc2[nH]cc(Nc3ccc4ccc(C(F)(F)F)cc4n3)c2cc1F [Compound 162], Fc1cc2[nH]cc(Nc3ccc4cc(C(F)(F)F)ccc4n3)c2cc1F [Compound 161, N-(5,6-difluoro-1H-indol-3-yl)-6-(trifluoromethyl)quinolin-2-amine] is higher in EC50: 0.2 to 1 µM for the first, 1 to 5 µM for the second.

c1ccc(-c2ccc(Nc3c[nH]c4cccnc34)nc2)cc1 [Compound 169] and c1ccc(-c2ccnc(Nc3c[nH]c4cccnc34)c2)cc1 [Compound 102, N-(4-phenylpyridin-2-yl)-1H-pyrrolo[3,2-b]pyridin-3-amine] fall in the same range of EC50: 5 to 30 µM for the first, 5 to 30 µM for the second.

For c1ccc2sc(Nc3c[nH]c4ccccc34)nc2c1 [Compound 103], the EC50 was 1 to 5 µM.

same assay, conditions: 15 μM 2′3′cGAMP, 24 h, numeric bounds

O=c1nc(Nc2c[nH]c3cccnc23)ccn1-c1ccccc1 [Compound 168] and O=c1cc[nH]c(Nc2c[nH]c3cc(F)c(F)cc23)n1 [Compound 164] cannot be ordered by EC50: over 100 µM for the first, over 30 µM for the second.
